Results as given in patent US12390444B2, “Stabilizing vitamin C topical formulations” (MF Beauty Partners LLC, priority 2020, dated 2025).

Tests used:
[1] = Solubility of optional additional components in non-aqueous solvents; assay type: physicochemical
Description: Additional ingredients were chosen for their compatibility with (e.g., miscibility in) 1,3 propanediol, 1,2 propanediol, and 1,3 butanediol.

[2] = most solvents; cited from earlier work
skin [3] = conditions: 4% HQ versus 5% Vitamin C; cited from earlier work
skin [4] = conditions: in vivo; cited from earlier work
[5] = Protocol: This example was reproduced.
All mixtures were heated to 85° C.

erythema (skin redness) = conditions: concentrations of 0.2%; cited from earlier work

Question: With COc1cc(CC(C(C)=O)C(C)=O)ccc1O [Acetyl zingerone] as the molecule, how does the “solubility of acetyl zingerone” value ([1]; 0.5-1%, 1,3 propanediol, 1,2 propanediol and 1,3 butanediol) read?
Answer: The value was “readily soluble”.

Question: Which “solubility of AzA” value [2] does the source give for O=C(O)CCCCCCCC(=O)O [AzA, Azelaic acid] here?
Answer: The value was “very poorly soluble”.

Question: What about the “concentration of AzA that can be solubilized” value ([1]; 1,3 propanediol) of the same molecule?
Answer: Its value is “up to 10%”.

Question: And the “solubility of AzA in presence of hydroxyethyl urea” value ([1]; 1,3 propanediol)?
Answer: Its value is “slightly increased”.

Question: And the “AzA solubilized together with AA and U” value ([1]; with 10% AA, 5% U in a 1,3 propanediol base)?
Answer: Its value is 7.5%.

Question: For Oc1ccc(O)cc1 [HQ, hydroquinone], which improvement (skin [3]) is on record?
Answer: The improvement was 93%.

Question: What about the side-effects (skin [3]) of the same molecule?
Answer: Its side-effects is 68.7%.

Question: Which “concentration at which inhibition of transepidermal water loss is apparent” value (skin [4]) does the source give for CC(C)(CO)[C@@H](O)C(=O)NCCCO [Panthenol] here?
Answer: The value was at least 1%.

Question: With NC(N)=O [U, urea] as the molecule, how does the “maximum concentrations soluble before urea starts to precipitate (the ceiling)” value ([5]; ascorbic acid together with urea in propylene glycol, butylene glycol and propanediol) read?
Answer: Its value is 20%.

Question: Which degradation on heating [5] does the source give for O=C1O[C@H]([C@@H](O)CO)C(O)=C1O [ascorbic acid, L-ascorbic acid] here?
Answer: The degradation on heating was “showed signs of degradation”.

Question: And the improvement (skin [3])?
Answer: Its improvement is 62.5%.

Question: For CC1(C)[C@@H](O[C@H]2O[C@H](C(=O)O)[C@@H](O)[C@H](O)[C@H]2O[C@@H]2O[C@H](C(=O)O)[C@@H](O)[C@H](O)[C@H]2O)CC[C@]2(C)[C@H]3C(=O)C=C4[C@@H]5C[C@@](C)(C(=O)O)CC[C@]5(C)CC[C@@]4(C)[C@]3(C)CC[C@@H]12 [glycyrrhizic acid, Glycyrrhizic acid], which “solubility of glycyrrhizic acid” value ([1]; 1,3-propanediol) is on record?
Answer: The value was “shows solubility”.

Question: Which results are given for Madecassoside?
Answer: reduction of erythema (skin redness), clinical data (erythema (skin redness)): desirable ability to reduce erythema; solubility of madecassoside ([1]; concentration of 0.2%, 1,3 propanediol, 1,2 propanediol and 1,3 butanediol): soluble
